Values after ≈ are worked out from the molar mass of the structure shown.
What was measured:
conscious rats = experiment: Effect of compounds on mean aortic pressure and heart rate in conscious rats (oral); assay type: in vivo, genetically hypertensive rats; details: for Heart Rate / mean aortic pressure / Heart Rate % Change / Aortic Pressure % Change: 50 mg/kg po; for Aortic Pressure % Change: - denotes a decrease in b.p.
Procedure: The blood pressure of unanesthetized rats and dogs was measured directly by means of a transducer attached to an intra-arterial cannula and in anesthetized dogs by a mercury manometer attached to a carotid cannula.
The compounds of the instant invention were tested as the hydrochloride salts by the above method in genetically hypertensive rats in doses of 50 mg./kg. orally.
Compounds were studied by oral administration in conscious rats for their effects on aortic pressure and cardiac rate.

[1] = as compared to compound 1; Jen et al, J. Med. Chem. 16, 633 (1973); cited from earlier work
[2] = tested on: adenosine diphosphate (ADP) induced platelet aggregation; experiment: In vitro inhibition of ADP induced platelet aggregation (aggregometer method of Born); assay type: cell-based; details: Oryctolagus cuniculus; rabbit platelet rich plasma, ADP 0.5 mcg./ml.
Procedure: (§1) The aggregometer method of Born (1), as modified by Mustard et al (2) was used to assess the in vitro activity of the various compounds as to inhibition of adenosine diphosphate (ADP) and collagen induced platelet aggregation. Platelet rich plasma was separated by centrifugation from citrated (3.8 per cent) rabbit blood. ADP in final concentration of 0.5 mcg./ml. or 0.05 ml. of a collagen suspension prepared according to the method described by Evans et al. (3) was used to induce aggregation. The various compounds tested were dissolved in dimethylsulfoxide (DMSO) so that 5 mcl. added to the platelet rich plasma would yield the desired test concentration. Vehicle control trials were done and compared with aggregation induced in platelet rich plasma containing various concentrations of the test compounds. Dose response curves were obtained and Effective Concentration (EC50) values calculated.
(§2) 1. Born, G.V.R J. Physiol., London, 162, 67P (1962).
(§3) 2. mustard, J. F., Hegardt, B. Rowsell, H. C. and MacMillan, R. L., J. Lab. Clin. Med. 64, 548 (1964).
(§4) 3. Evans, G. Marian, M. C., Packham, M. A., Nishizawa, E. E., Mustard, J. F. and Murphy, E. A., J. Exp. Med., 128, 877 (1968).

[3] = tested on: collagen induced platelet aggregation; experiment: In vitro inhibition of collagen induced platelet aggregation (aggregometer method of Born); assay type: cell-based; details: Oryctolagus cuniculus; rabbit platelet rich plasma, 0.05 ml. collagen suspension
Procedure: as §1, §2, §3, §4

[4] = oral administration, conscious rats

EC50 [2]	EC50 [3]	Compound	Heart Rate (conscious rats; N=3, 0 min (baseline))	mean aortic pressure (conscious rats; N=3, 0 min (baseline))	Heart Rate (conscious rats; N=3, 30 min)	Heart Rate % Change (conscious rats; N=3, 30 min)	mean aortic pressure (conscious rats; N=3, 30 min)	Aortic Pressure % Change (conscious rats; N=3, 30 min)	Heart Rate (conscious rats; N=3, 90 min)	Heart Rate % Change (conscious rats; N=3, 90 min)	mean aortic pressure (conscious rats; N=3, 90 min)	Aortic Pressure % Change (conscious rats; N=3, 90 min)	Heart Rate (conscious rats; N=3, 150 min)	Heart Rate % Change (conscious rats; N=3, 150 min)	mean aortic pressure (conscious rats; N=3, 150 min)	Aortic Pressure % Change (conscious rats; N=3, 150 min)	Heart Rate (conscious rats; N=3, 300 min)	Heart Rate % Change (conscious rats; N=3, 300 min)	other results
–	–	O=C1CC2Cc3ccccc3N=C2N1 (centres unmarked) [BL-4369]	350±25 Beats/Min	114±2 mmHg	420±19 Beats/Min	21±9%	91±6 mmHg	-20±6%	414±26 Beats/Min	19±9%	110±3 mmHg	-3±4%	370±31 Beats/Min	6±8%	101±3 mmHg	-11±2%	382±25 Beats/Min	10±7%	mean aortic pressure (conscious rats; N=3, 300 min): 109±8 mmHg
–	–	Cc1cccc2c1CC1CC(=O)NC1=N2 (centres unmarked) [BL-4412]	352±21 Beats/Min	126±2 mmHg	464±24 Beats/Min	34±15%	86±1 mmHg	-32%	432±12 Beats/Min	24±10%	86±2 mmHg	-31.2%	422±12 Beats/Min	21±11%	89±4 mmHg	-29%	422±19 Beats/Min	1±12%	Aortic Pressure % Change (conscious rats; N=3, 300 min): -25%; effect on aortic pressure (in words) (conscious rats; [4]): appreciable fall in aortic pressure; effect on heart rate (in words) (conscious rats; [4]): not out of proportion to the fall in aortic pressure
–	–	c1ccc2c(c1)CC1CCNC1=N2 (centres unmarked) [compound 2]	–	–	–	–	–	–	–	–	–	–	–	–	–	–	–	–	antihypertensive activity (in words) [1]: low degree of antihypertensive activity
22 µg/mL (≈ 118 µM)	27 µg/mL (≈ 145 µM)	O=C1CC2Cc3ccccc3N=C2N1 (centres unmarked) [drawing 3]	–	–	–	–	–	–	–	–	–	–	–	–	–	–	–	–	–
1.5 µg/mL (≈ 7.49 µM)	0.3 µg/mL (≈ 1.5 µM)	Cc1cccc2c1CC1CC(=O)NC1=N2 (centres unmarked) [drawing 4]	–	–	–	–	–	–	–	–	–	–	–	–	–	–	–	–	–
